Data published in US9765054B2, “Histone deacetylase inhibitors and compositions and methods of use thereof” (CHDI Foundation, Inc., priority 2011, dated 2017).

What was measured:
[1] = target: human catalytic domain HDAC4 protein (Homo sapiens, UniProt P56524, A743G/DEL730-739/DEL742-742); experiment: Inhibition of HDAC4 catalytic domain enzymatic activity, Boc-Lys(Tfa)-AMC substrate, fluorescence; details: Class IIa selective substrate Boc-Lys(Tfa)-AMC, read-out: Biochemical HDAC-4 IC50;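 further: trypsin releases AMC from deacetylated substrate, fluorescence tracks enzyme activity, 15 min reaction at 37 °C, 100% activity defined by DMSO-only control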
[2] = system: cellular histone deacetylase enzymatic activity in Jurkat E6-1 cells; experiment: Inhibition of cellular HDAC activity, Boc-Lys(Tfa)-AMC substrate, in Jurkat E6-1 cells; assay type: cell-based; details: Homo sapiens, Class IIa selective substrate Boc-Lys(Tfa)-AMC
Text: The potency of Class IIa Histone Deacetylase (HDAC) inhibitors is quantified by measuring the cellular histone deacetylase enzymatic activity using the Class IIa selective substrate, Boc-Lys(Tfa)-AMC. After penetration in Jurkat E6-1 cells, the substrate is deacetylated to Boc-Lys-AMC. After cell lysis and cleavage by trypsin, the fluorophore AMC is released from the deacetylated substrate only. The fluoresence of the sample is directly related to the histone deacetylase activity in the sample.
Jurkat E6.1 Cell Culture and Plating.
Jurkat E6.1 cells are cultured according to standard cell culture protocols in Jurkat E6.1 Growth Media (RPMI without phenol red, 10% FBS, 10 mM HEPES, and 1 mM Sodium Pyruvate). Jurkat E6.1 cells are counted using a Coulter Counter and resuspended in Jurkat E6.1 growth media at a concentration of 75,000 cells/35 μl. 35 μl or 75,000 cells is seeded into Greiner microtitre assay plates. The plates are then incubated at 37° C. and 5% CO2 while other assay components are being prepared.
Serially Dilute HDAC Inhibitor Compounds.
Serial dilutions of the HDAC inhibitors and control reference compound (1-(5-(3-((4-(1,3,4-oxadiazol-2-yl)phenoxy)methyl)-1,2,4-oxadiazol-5-yl)thiophen-2-yl)-2,2,2-trifluoroethanone) are made by first resuspending the lyophilized compound to a final concentration of 10 mM in 100% DMSO. Stocks of 70 μl aliquots of the 10 mM compound in DMSO are prepared and stored at −20° C. From one stock aliquot of each compound to be tested and the reference compound, a 16-point serial dilution is prepared according to Table 7 using a 125 μl 16-channel Matrix multi-channel pipette.
2 μl (200×) of each diluted solution and each control (full activity: 100% DMSO alone or full inhibition 1 mM) is stamped into V-bottom polypropylene 384-well compound plates using either the Bravo, Janus, or […] 16-channel Matrix multi-channel pipette. Each well with the 200× compound solution is diluted 1:20 by the addition of 38 μl Jurkat assay buffer+DMSO (9.5% DMSO, RPMI without phenol red, 0.09% FBS, 9 mM Hepes, and 0.9 mM Sodium Pyruvate equilibrated to room temperature)
Prepare 5× (500 μM) Boc-Lys(Tfa)-AMC Substrate.
5× (500 μM) substrate is prepared just prior to the addition to the assay. The 5× substrate is prepared by diluting a 100 mM Boc-Lys(Tfa)-AMC in DMSO solution 1:200 by adding it drop-wise to Jurkat assay medium (RPMI without phenol red, 0.1% FBS, 10 mM Hepes, and 1 mM Sodium Pyruvate equilibrated to 37° C.) while vortexing at slow speed to prevent precipitation.
10 ml of 3× lysis buffer is prepared with 8.8 ml of 3× stock lysis buffer (50 mM Tris-HCl, pH 8.0, 137 mM NaCl, 2.7 mM KCl, 1 mM MgCl2, 1% Nonidet P40 Substitute equilibrated to room temperature) and 1.2 ml of 3 mg/ml Trypsin equilibrated to room temperature.
5 μl of each solution of 1:20 diluted compound from above is transferred to the Greiner microtitre assay plates with 75,000 cells/well using the Bravo. Cells are then incubated for 2 hours at 37° C. and 5% CO2. The assay is then started by adding 10 μl of 5× (500 μM) substrate to the assay plate using either the Bravo or 16-channel Matrix multi-channel pipette. The cells are then incubated for 3 hours at 37° C. and 5% CO2. Next, 25 μl of 3× lysis buffer is added to each well using either the 125 μl 16 channel pipette or the Bravo. The assay plate is then incubated overnight (15-16 hours) at 37° C. and 5% CO2. The following day, the plates are shaken on an orbital shaker for 1 minute at 900 rpm. Finally the top read fluorescence (Excitation: 355 nm, Emission: 460 nm) is measured using PerkinElmer EnVision.

IC50 [1]	IC50 [2]	SMILES
220 nM	810 nM	O=C(NO)[C@@H]1[C@H](c2ccccc2)[C@H]1c1ccc(-c2ncc(C3CC3)cn2)cc1 (racemic) [Compound 50c, (1R*,2R*,3R*)-2-(4-(5-Cyclopropylpyrimidin-2-yl)phenyl)-N-hydroxy-3-phenylcyclopropanecarboxamide]
	880 nM	O=C(NO)[C@@H]1[C@H](c2ccccc2)[C@H]1c1ccc(-c2nccc(C(F)(F)F)n2)cc1 (racemic) [Compound 50d, (1R*,2R*,3R*)-2-(4-(4-Trifluoromethylpyrimidin-2-yl)phenyl)-N-hydroxy-3-phenylcyclopropanecarboxamide]
110 nM	660 nM	O=C(NO)[C@@H]1[C@H](c2ccccc2)[C@H]1c1ccc(-c2ccnnc2)cc1 (racemic) [Compound 50g, (1R*,2R*,3R*)—N-Hydroxy-2-phenyl-3-(4-(pyridazin-4-yl)phenyl)cyclopropanecarboxamide]
	480 nM	Cc1cnc(-c2ccc([C@H]3[C@H](C(=O)NO)[C@@H]3c3ccccc3)cc2)nc1 (racemic) [Compound 50k, (1R*,2R*,3R*)—N-Hydroxy-2-(4-(5-methylpyrimidin-2-yl)phenyl)-3-phenylcyclopropanecarboxamide]
5660 nM	50000 nM	O=C(NO)[C@@H]1[C@H](c2ccccc2)[C@H]1c1ccc(-c2ccc(-n3c4ccccc4c4ccccc43)cc2)cc1 (racemic) [Compound 54b, (1R*,2R*,3R*)-2-(4′-(9H-carbazol-9-yl)-[1,1′-biphenyl]-4-yl)-N-hydroxy-3-phenylcyclopropanecarboxamide]
90 nM	760 nM	CC(C)N1CCN(c2ccc([C@H]3[C@H](C(=O)NO)[C@@H]3c3ccccc3)cc2)CC1 (racemic) [Compound 56a, (1R*,2R*,3R*)—N-Hydroxy-2-(4-(4-isopropylpiperazin-1-yl)phenyl)-3-phenylcyclopropanecarboxamide]
1430 nM	5080 nM	CC(C)N1CCN(c2cccc([C@H]3[C@H](C(=O)NO)[C@@H]3c3ccccc3)c2)CC1 (racemic) [Compound 56b, (1R*,2R*,3R*)—N-Hydroxy-2-(3-(4-isopropylpiperazin-1-yl)phenyl)-3-phenylcyclopropanecarboxamide]
390 nM	2180 nM	O=C(NO)[C@@H]1[C@H](c2ccccc2)[C@H]1c1cccc(N2CCC(N3CCCC3)CC2)c1 (racemic) [Compound 56g, (1R*,2R*,3R*)—N-Hydroxy-2-phenyl-3-(3-(4-(pyrrolidin-1-yl)piperidin-1-yl)phenyl)cyclopropanecarboxamide]
140 nM	1310 nM	CN1CCN(c2ccc([C@H]3[C@H](C(=O)NO)[C@@H]3c3ccccc3)cc2)CC1 (racemic) [Compound 56i, (1R*,2R*,3R*)—N-Hydroxy-2-(4-(4-methylpiperazin-1-yl)phenyl)-3-phenylcyclopropanecarboxamide]
	420 nM	O=C(NO)[C@@H]1[C@H](c2ccccc2)[C@H]1c1ccc(-c2ncc(Cl)cn2)cc1 [Compound 50j, (1R,2R,3R)-2-(4-(5-Chloropyrimidin-2-yl)phenyl)-N-hydroxy-3-phenylcyclopropanecarboxamide]

The remaining lines, values behind:

SMILES	IC50 [1]	IC50 [2]
O=C(NO)[C@H]1[C@H](c2ccccc2)[C@H]1C1CCCCC1 (racemic) [Compound 5, (1R*,2R*,3R*)-2-Cyclohexyl-N-hydroxy-3-phenylcyclopropanecarboxamide]	6220 nM	36900 nM
CC(C)Oc1ccccc1[C@@H]1C(c2ccccc2)[C@H]1C(=O)NO (mixture of isomers) [Compound 11a, (1R,2R,3R*)—N-Hydroxy-2-(2-isopropoxyphenyl)-3-phenylcyclopropanecarboxamide]	20600 nM	50000 nM
O=C(NO)[C@@H]1[C@H](c2ccccc2)[C@H]1c1ccccc1F (racemic) [Compound 11b, (1R*,2R*,3R*)-2-(2-Fluorophenyl)-N-hydroxy-3-phenylcyclopropanecarboxamide]	320 nM	1830 nM
O=C(NO)[C@H]1[C@H](c2ccccc2)[C@H]1c1ccccc1F (racemic) [Compound 13, (1S*,2R*,3R)-2-(2-Fluorophenyl)-N-hydroxy-3-phenylcyclopropanecarboxamide]	940 nM	7670 nM
O=C(NO)[C@@H]1[C@H](c2ccccc2)[C@H]1c1ccccc1Br (racemic) [Compound 16a, (1R*,2R*,3R*)-2-(2-Bromophenyl)-N-hydroxy-3-phenylcyclopropanecarboxamide]	620 nM	6530 nM
O=C(NO)[C@@H]1[C@H](c2ccccc2)[C@H]1c1cccc(Br)c1 (racemic) [Compound 16b, (1R*,2R*,3R*)-2-(3-Bromophenyl)-N-hydroxy-3-phenylcyclopropanecarboxamide]	70 nM	1410 nM
O=C(NO)[C@@H]1[C@H](c2ccccc2)[C@H]1c1ccc(Br)cc1 (racemic) [Compound 16c, (1R*,2R*,3R*)-2-(4-Bromophenyl)-N-hydroxy-3-phenylcyclopropanecarboxamide]	370 nM	2870 nM
Cc1ccccc1[C@H]1[C@H](C(=O)NO)[C@@H]1c1ccccc1 (racemic) [Compound 18a, (1R*,2R*,3R*)—N-Hydroxy-2-phenyl-3-o-tolylcyclopropanecarboxamide]	1720 nM	13200 nM
Cc1cccc([C@H]2[C@H](C(=O)NO)[C@@H]2c2ccccc2)c1 (racemic) [Compound 18b, (1R*,2R*,3R*)—N-Hydroxy-2-phenyl-3-m-tolylcyclopropanecarboxamide]	150 nM	2740 nM
Cc1ccc([C@H]2[C@H](C(=O)NO)[C@@H]2c2ccccc2)cc1 (racemic) [Compound 18c, (1R*,2R*,3R*)—N-Hydroxy-2-phenyl-3-p-tolylcyclopropanecarboxamide]	150 nM	2250 nM
O=C(NO)[C@@H]1[C@H](c2ccccc2)[C@H]1c1ccc(NS(=O)(=O)C2CC2)cc1 (racemic) [Compound 22, (1R*,2R*,3R*)-2-(4-(cyclopropanesulfonamido)phenyl)-N-hydroxy-3-phenylcyclopropanecarboxamide]	50 nM	1320 nM
O=C(NO)[C@@H]1[C@H](c2ccccc2)[C@H]1c1ccc(-n2ccnc2)cc1 (racemic) [Compound 42, (1R*,2R*,3R*)-2-(4-(1H-imidazol-1-yl)phenyl)-N-hydroxy-3-phenylcyclopropanecarboxamide]	200 nM	1630 nM
O=C(NO)[C@@H]1[C@H](c2ccccc2)[C@H]1c1ccc(-c2cnc(-c3ccccc3)o2)cc1 (racemic) [Compound 48, (1R*,2R*,3R*)—N-Hydroxy-2-phenyl-3-(4-(2-phenyloxazol-5-yl)phenyl)cyclopropanecarboxamide]	280 nM	1260 nM
O=C(NO)[C@@H]1[C@H](c2ccccc2)[C@H]1c1ccc(-c2ccc3c(c2)CN(C2CC2)C3)cc1 (racemic) [Compound 52, (1R*,2R*,3R*)-2-(4-(2-cyclopropylisoindolin-5-yl)phenyl)-N-hydroxy-3-phenylcyclopropanecarboxamide]	480 nM	1790 nM
C[C@@]1(C(=O)NO)[C@H](c2ccccc2)[C@H]1c1ccc(-c2ncc(F)cn2)cc1 (racemic) [Compound 63, (1R*,2S*,3S*)-2-(4-(5-Fluoropyrimidin-2-yl)phenyl)-N-hydroxy-1-methyl-3-phenylcyclopropanecarboxamide]	270 nM	1550 nM
